Measurements taken from patent US4219550A, “Cis- and trans- octahydropyridopyrrolobenzheterocycles” (E. I. Du Pont de Nemours and Company, priority 1978, dated 1980).
Structures can show the parent of a compound that is named as a salt. Where two headings read alike, the source gives them in different places.

Key:
[1] = tested on: conditioned avoidance response; assay: Rat conditioned avoidance response (CAR); type: in vivo, male Holtzman rats
Method: The tranquilizing activity of the compounds of this invention is evidenced by tests conducted in male white rats in which a conditioned avoidance response is interrupted following an oral dose of the drug. This test is predictive of human response to an antipsychotic (tranquilizing) drug. The method of Clark was used (Clark, R., Psychon. Sci. 6, 11, 1966).
The test animals, male Holtzman rats between 90 and 115 grams, were food deprived 18 hours prior to avoidance training. Test drugs were suspended in 0.5% Methocel.
The equipment consisted of a plexiglas pit 5"×5"×9" fitted with a metal floor grid which can be electrified via the output of a shock generator. The top end of the pit opened into a surrounding platform 12"×3-1/2" on all four sides. This pit fitted into a larger plexiglas housing which served both to support the pit and to distribute wires to (a) the electrified floor grid, (b) a sound speaker used for stimulus presentation and (c) a 40 watt incandescent bulb also used for stimulus presentation. The main housing was separate from but attached to a metal frame which supported a noise generator, shock generator, and timing/sequence device. The noise generator was a Grason-Stadler Model 1724, used in the 50 KHz bandwidth with output of -10DB. The two-line shock generator supplied a constant A/C current of 0.19 milliamperes, via constantly scrambled 10 HZ square wave output.
The rats were trained by giving each of them four successive trials 15 to 20 minutes apart with a conditioned stimulus (CS) of a 40-watt incandescent bulb and a white noise plus an unconditioned stimulus (US) of a 0.19 milliampere scrambled shock. Following the four CS+US trials each animal was given an avoidance learning criterion trial in which the CS was presented alone 10 seconds prior to the US.
Rats were dosed orally with compound of the invention or standard drug, 20 rats/dose. Each rat was tested at 60, 120 and 240 minutes after drug.

[2] = tested on: tetrabenazine-induced sedation and depression; assay: Mouse tetrabenazine (TBZ) antagonism (ptosis and exploratory activity); type: in vivo, Carworth CF1 S female mice
Method: This mouse test is predictive of human antidepressant response (Everett, "The Dopa Response Potentiation Test and Its Use in Screening for Antidepressant Drugs", pp 164 in "Antidepressant Drugs" [Proceedings of the First International Symposium], S. Garattini and M. N. G. Dukes, eds., 1967).
Groups of 10 Carworth CF1 S female mice, 18-21 g each, were fasted 1.5 hours and were intubated with antagonist compounds at oral doses of 0, 0.33, 1, 3, 9, 27 and 81 mg/kg in 0.20 ml of 1% Methocel®. The mice were challenged 30 minutes later with tetrabenazine (as the methane-sulfonate), 32 mg/kg intraperitoneally (dissolved in 0.20 ml 0.05 M KCl at pH 2.0). One hour after antagonist (30 minutes after tetrabenazine), the mice were examined for signs of exploratory activity and ptosis (eyelid closure). Normal exploratory activity (relief from sedation) was recorded when a mouse lifted by the tail from a group of 10 in a testing box and placed on a stainless steel testing box lid (12.5"×8" with 0.33" mesh) either turned its head horizontally 30° in both directions or moved to the edge of the screen within 10 seconds after being placed on the screen. Relief from ptosis was recorded when exactly two seconds after placing the mouse facing the observer, lid closure was less than 50% in both eyes.

[3] = tested on: tetrabenazine-induced sedation and depression; assay: as above; type: in vivo, Carworth CF1 S female mice; conditions: 30 mg/kg, footnote mark stands under PTOSIS
[4] = po, 1 h, read-out: ED50 TBZ ANTAG. EXPLOR.
[5] = po, 1 h, read-out: ED50 TBZ ANTAG. PTOSIS

| SMILES | ED50 ([1]; po, read-out: ED50 CAR AVOID.) [mg/kg] | ED50 [2, 4] [mg/kg] | ED50 [2, 5] [mg/kg] | ED50 ([1]; po, read-out: ED50 CAR ESCAPE) [mg/kg] | TBZ ANTAG. activity, subcutaneous (footnote *) [3] | ED50 ([1]; oral, 20 rats/dose, tested at 60, 120 and 240 min, avoidance, read-out: ED50 CAR AVOID.) [mg/kg] | ED50 ([2]; oral antagonist, tetrabenazine 32 mg/kg i.p. 30 min later, examined 1 h after antagonist, exploratory activity (relief from sedation), read-out: ED50 TBZ ANTAG. EXPLOR.) [mg/kg] | ED50 ([2]; oral antagonist, tetrabenazine 32 mg/kg i.p. 30 min later, examined 1 h after antagonist, relief from ptosis, read-out: ED50 TBZ ANTAG. PTOSIS) [mg/kg] |
| --- | --- | --- | --- | --- | --- | --- | --- | --- |
| CCCCN1CC[C@H]2[C@@H](C1)c1cccc3c1N2CCS3 (relative stereo) [CH2, S, n-C4H9, H, cis] | 5.5 | 14 | 11 |  |  |  |  |  |
| c1cc2c3c(c1)[C@@H]1CNCC[C@@H]1N3CCO2 (relative stereo) [Example 1, (+)-cis-1,2,6b,7,8,9,10,10a-Octahydropyrido[3', 4': 4,5]pyrrolo[1,2,3,-de][1,4]benzoxazine] | 2.2 | 23 | 1.4 | > 25 |  |  |  |  |
| Clc1ccc2c3c1[C@@H]1CNCC[C@@H]1N3CCO2 (relative stereo) [Example 2] | ~23 | 27 | 4.3 | > 50 |  |  |  |  |
| c1cc2c3c(c1)[C@@H]1CN(C4CC4)CC[C@@H]1N3CCO2 (relative stereo) [Example 3] | 28 | 24 | 21 |  |  |  |  |  |
| c1cc2c3c(c1)[C@@H]1CNCC[C@@H]1N3CCCO2 (relative stereo) [Example 4] | 2.2 | 47 | 1.6 | 14 |  |  |  |  |
| c1cc2c3c(c1)[C@@H]1CNCC[C@@H]1N3CCS2 (relative stereo) [Example 5] | 1.1 | 0.4 | 3.3 |  |  |  |  |  |
| CN1CC[C@H]2[C@@H](C1)c1cccc3c1N2CCS3 (relative stereo) [Example 6] | 17 | > 81 | 7.2 |  |  |  |  |  |
| c1cc2c3c(c1)[C@@H]1CN(C4CC4)CC[C@@H]1N3CCS2 (relative stereo) [Example 7] |  | 3.3 | 1.1 |  |  |  |  |  |
| c1cc2c3c(c1)[C@@H]1CNCC[C@@H]1N3CCCS2 (relative stereo) [Example 8] |  |  |  |  | active subcutaneously at 30 mg/kg |  |  |  |
| c1cc2c3c(c1)[C@@H]1CNCC[C@@H]1N3CCCS2 (relative stereo) [Example 8a] | 2.2 | 54 | 6.6 |  |  |  |  |  |
| c1cc2c3c(c1)[C@@H]1CN(C4CC4)CC[C@@H]1N3CCCS2 (relative stereo) [Example 9] |  | 68 | 68 |  |  |  |  |  |
| CC(C)N1CC[C@H]2[C@@H](C1)c1cccc3c1N2CCS3 (relative stereo) [Example 11] | 5.5 | 14 | 11 |  |  |  |  |  |
| c1cc2c3c(c1)[C@H]1CN(C4CC4)CC[C@@H]1N3CCO2 (relative stereo) [Example 17] |  | 11.2 | 7.5 |  |  |  |  |  |
| CN1CC[C@H]2[C@H](C1)c1cccc3c1N2CCS3 (relative stereo) [Example 18] | 28 | 6.5 | 6.5 |  |  |  |  |  |
| CN(C)CCC=C1c2ccccc2CCc2ccccc21 [Amitriptyline · HCl, Amitriptyline, reference compound] |  |  |  |  |  | 116 | 4.3 | 1.6 |
| CN(C)CCCN1c2ccccc2Sc2ccc(Cl)cc21 [Chlorpromazine · HCl, Chlorpromazine, reference compound] | 5.4 | > 81 | > 81 | ~34 |  |  |  |  |
| CC1CN2c3c(cccc3[C@@H]3CNCC[C@@H]32)S1 (stereo partly drawn) [Example 10] | 8.5 | 27 | 23 | ~38 |  |  |  |  |
| CCN1CC[C@@H]2[C@@H](C1)c1cccc3c1N2CCS3 [Example 16, (+)-trans-8-Ethyl-1,2,6b, 7,8,9,10,10a-octahydropyrido[3',4':4,5]pyrrolo[1,2,3-de][1,4]benzothiazine] | 6.2 | 10.8 | 7.5 |  |  |  |  |  |
